This note sets out measurements from PubChem BioAssay (NCI).

The structures appear in SMILES notation. Where “and” joins values, the source holds several entries; their conditions need not be identical. Equal values may be shown once.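 Where inhibition never reached the appropriate level, the endpoint shown equals the highest concentration tested. Otherwise, values were interpolated linearly from a five-concentration, 48-hour dose response in 96-well plates. The concentration for 50% growth inhibition is given as GI50. The concentration for full growth arrest is given as TGI.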

Holding throughout (test): inhibition of tumour cell growth, NCI panel, 48 h
Assay [1] deals with A498 renal.
Assay [2] deals with T-47D breast.
For assay [3], the system named is RPMI-8226 leukemia.
The test system of assay [4] is 786-0 renal.
For assay [5], the system named is K-562 leukemia.
Assay [6] relates to ACHN renal.
Assay [7] deals with LOX IMVI melanoma.
Assay [8] deals with SK-MEL-2 melanoma.

As to `CCCCCCCCCCCCCCCCCCn1cc[n+](C)c1`, the GI50 in assay [1] was 1.07 µM; in assay [2], 0.403 µM and 0.433 µM; in assay [3], 0.0268 µM; in assay [4] it was 0.952 µM; in assay [5] it was 0.385 µM and 0.312 µM; in assay [6], 0.54 µM and 0.69 µM. The GI50 in assay [7] is 0.189 µM and 0.406 µM. The TGI in assay [1] is 3.09 µM; in assay [2] it was 2.96 µM and 3.31 µM; in assay [3], 0.233 µM; in assay [4] it was 3.32 µM; in assay [5], greater than 100 µM; in assay [6], 2.04 µM and 2.03 µM. Further, the TGI in assay [7] is 0.479 µM and 1.75 µM.
For `C[C@]12CC[C@H]3[C@@H](CC=C4C[C@@H](N5CCCC5)CC[C@@]43C)[C@@H]1C/C(=C\c1cccc(OCCN3CCOCC3)c1)[C@@H]2O`, the GI50 in assay [1] was 3.52 µM; in assay [2], 2.67 µM; in assay [4] it was 1.64 µM; in assay [8], 14.1 µM; in assay [5] it was 2.34 µM; in assay [6], 4.29 µM. In addition, in assay [7], the GI50 was 2.61 µM. The TGI in assay [1] is 15 µM; in assay [2], greater than 100 µM; in assay [4], 3.62 µM; in assay [8], 31.8 µM; in assay [5], greater than 100 µM; in assay [6], 32.5 µM. Moreover, the TGI in assay [7] amounted to 7.43 µM.
For `CC1C(C)N(C(=O)CCl)c2ccccc2N1C(=O)CCl` (stereo not given), the GI50 is 1.59 µM in assay [1]; 0.843 µM in assay [2]; 0.21 µM in assay [3]; 0.937 µM in assay [4]; 1.66 µM in assay [8]; 0.282 µM in assay [5]. For the same molecule, the GI50 in assay [6] is 0.309 µM; in assay [7] it was 0.235 µM. Besides, the TGI is 3.14 µM in assay [1]; 2.67 µM in assay [2]; 0.649 µM in assay [3]; 3.02 µM in assay [4]; 4.54 µM in assay [8]; 2.37 µM in assay [5]. Also, the TGI in assay [6] turned out to be 0.783 µM; in assay [7] it was 0.729 µM.
For the molecule `CC1=C2[C@@H](CC1)[C@]1(C)O[C@@](C(C)C)(C[C@H]1OC(=O)CO)[C@H]2OC(=O)C1CC1c1ccccc1` (stereo not given in full), the GI50 was 0.24 µM in assay [1]; 4.16 µM in assay [2]; 12.8 µM in assay [3]; 15.1 µM in assay [4]; 15.5 µM in assay [8]; 12.2 µM in assay [5]. Besides, the GI50 in assay [6] was 3.05 µM; in assay [7] it was 14.4 µM. For the same molecule, the TGI was 0.943 µM in assay [1]; 21.6 µM in assay [2]; 42.6 µM in assay [3]; 32.2 µM in assay [4]; 32.3 µM in assay [8]; 36.5 µM in assay [5]. In addition, the TGI is 20.9 µM in assay [6] and 31.1 µM in assay [7].
`CC(N)(Cc1c[nH]c2cccc(F)c12)C(=O)O` (stereo not given): the GI50 was greater than 1000 µM in assay [1]; 978 µM in assay [2]; greater than 1000 µM in assay [3]; greater than 1000 µM in assay [4]; greater than 1000 µM in assay [5]; greater than 1000 µM in assay [6]. In addition, in assay [7], the GI50 was greater than 1000 µM. In addition, the TGI in assay [1], in assay [2], in assay [3], in assay [4], in assay [5] and in assay [6] was greater than 1000 µM throughout. The molecule also returned a TGI in assay [7] greater than 1000 µM.
Take `Nc1nc([Se])c2ncn(C3OC(CO)C(O)C3O)c2n1` (stereo not given): the GI50 is 17 µM in assay [1]; 28.8 µM in assay [2]; 17.2 µM in assay [4]; 59.8 µM in assay [8]; 5.59 µM in assay [5]; 20.8 µM in assay [6]. In assay [7], the GI50 was 2.85 µM. Moreover, the TGI in assay [1], in assay [2], in assay [4], in assay [8], in assay [5] and in assay [6] was greater than 100 µM each time. This molecule displayed a TGI in assay [7] greater than 100 µM.
For `COC12C=C/C(=C(/C(=O)OCc3ccccn3)C(=O)CCCCCCCCC3(OC)C=C/C(=C(/C(=O)OCc4ccccn4)C(=O)CCCCCCCC1)O3)O2`, the GI50 in assay [1] was 1.06 µM; in assay [2] it was 0.588 µM; in assay [3], 0.371 µM; in assay [4], 0.326 µM; in assay [8], 1.18 µM; in assay [5] it was 0.331 µM. The GI50 in assay [7] was 0.188 µM. In addition, the TGI is 2.29 µM in assay [1]; 6.24 µM in assay [2]; 1.85 µM in assay [3]; 1.05 µM in assay [4]; 3.85 µM in assay [8]; greater than 100 µM in assay [5]. This molecule also displayed a TGI in assay [7] of 0.417 µM.
`NCCCC[C@@H]1NC(=O)[C@H](CC(=O)O)NC(=O)CNC(=O)[C@H](CCCN=C(N)N)NC(=O)[C@@H](N)CSSC[C@@H](C(=O)O)NC(=O)[C@H](CC(=O)O)NC(=O)[C@@H]2CCCN2C(=O)CNC1=O`: the GI50 in assay [1], in assay [2], in assay [3], in assay [4], in assay [5] and in assay [6] was greater than 100 µM throughout. In addition, the GI50 in assay [7] was greater than 100 µM. Further, the TGI in assay [1], in assay [2], in assay [3], in assay [4], in assay [5] and in assay [6] was greater than 100 µM each time. This molecule also returned a TGI in assay [7] greater than 100 µM.
Take `CCC(C)Nc1ccc(N)cc1` (stereo not given): the GI50 was 7.9 µM in assay [1]; 3.63 µM in assay [2]; 3.89 µM in assay [4]; 3.21 µM in assay [8]; 2.36 µM in assay [5]; 3.73 µM in assay [6]. Moreover, in assay [7], the GI50 was 3.43 µM. Also, the TGI in assay [1] was 23.4 µM; in assay [2], 14.1 µM; in assay [4] it was 14.3 µM; in assay [8] it was 8.61 µM; in assay [5] it was 10.4 µM; in assay [6], 13.3 µM. Also, in assay [7], the TGI is 11 µM.
